Assay results taken from patent publication US20080268477A1, “Antibody Reactive Specifically to Age Derived from 3,4-Dge” (JMS CO., LTD., priority 2005, published 2008).
Values belong to the compound of their own block, whether it stands above or below them.

What was measured:
[1] = system: Human peritoneal mesothelial cells (HPMCs); test: cytotoxic test of AGE-proteins (WST-1); format: cell-based; conditions: 1 mg/mL AGE-protein, four days
Method: In order to examine the biological activities of AGE-proteins derived from various carbonyl compounds, a cytotoxic test was carried out. The AGE-proteins used herein were 3,4-DGE-BSA, MGO-BSA, GO-BSA, and AA-BSA that had been prepared in the same manner as in Example 3.
Human peritoneal mesothelial cells (HPMCs) that had been suspended in FBS-M199 medium were seeded into a 96-well plate (manufactured by Iwaki) in an amount of 3400 cells/well and then were cultured overnight. Adherent cells in each well were exposed to M199 medium (0.1 ml/well) containing 8.4% FBS in which AGE-proteins had been dissolved in such a manner as to be 1 mg/mL, and were cultured for four days. After completion of the exposure, the medium was removed. Thereafter, the adherent cells were cultured in M199 medium containing a 10% chromogenic substrate (Trade Name: WST-1; manufactured by TAKARA BIO, INC.). Then the absorbance at a wavelength of 450 nm was measured 40 minutes later and thereby the viable cell count was determined. The result is shown in the graph in FIG. 15. In FIG. 15, “DGE-BSA” denotes “3,4-DGE-BSA”.

BSA [2] = molecular target: T1, BSA (Bos taurus, UniProt P02769); test: appearance (browning) of reaction solution of carbonyl compound and BSA; design: species or system bovine; conditions: 25 mM carbonyl compound, BSA 5 mg/ml, 37° C.; for browning of reaction solution: 168 hours
T1 construct: purchased SIGMA A-0281
Method: AGEs were formed from proteins, BSA, using carbonyl compounds (3,4-DGE, MGO, GO, 3-DG, and Glu). First, BSA (manufactured by SIGMA; Trade Name: A-0281) was dissolved in PBS (pH 7.4) so as to have a concentration of 5 mg/ml (6.2 mM of basic amino acid residues). Thus a BSA solution was prepared. Then each carbonyl compound was added to the BSA solution so as to have a concentration of 25 mM (4-equivalent relative to the basic amino acid residues in the BSA). This was incubated at 37° C. for predetermined times (2, 4, 8, 24, 72, and 168 hours). The respective carbonyl compounds used herein were 500 mM 3,4-DGE aqueous solution (prepared in house), 40% MGO aqueous solution (manufactured by SIGMA), 40% GO aqueous solution (manufactured by Wako Pure Chemical Industries, Ltd.), 3-DG (manufactured by Dojindo Laboratories Co., Ltd.), and Glu (Pharmacopeia, manufactured by San-ei Sucrochemical Co, Ltd.). The BSA solution was incubated in the same manner as described above, with no carbonyl compounds being added thereto. This was used as a control. The appearances of the reaction solutions obtained after 168 hours incubation are shown in the photograph in FIG. 9.

BSA [3] = molecular target: T1, BSA; test: ELISA for known AGEs (pentosidine, CML, MRX) in reaction product; design: species or system bovine
Method: With respect to the above-mentioned sample solutions obtained using the carbonyl compounds (3,4-DGE, 3-DG, GO, and MGO), it was evaluated by ELISA whether pentosidine, carboxymethyllysine (CML), and Maillard reaction products (MRX: 8-hydroxy-5-methyldihydrothiazolo[3,2-alpha]) that were known AGEs had been produced or not. As a result, in the reaction solution obtained using GO, production of CML of 3.025 molecules per BSA molecule was found already after 24 hours incubation and production of CML of 3.7 molecules per BSA molecule was found after 168 hours incubation. In the reaction solution obtained using MGO, pentosidine of 0.0028 molecule per BSA molecule was found after 168 hours incubation. […] Accordingly, it can be said that the AGEs formed with 3,4-DGE are clearly different from conventionally known AGEs.

BSA [4] = molecular target: T1, BSA; test: fluorescence intensity of reaction solution of carbonyl compound and BSA (Reference Example 1); design: species or system bovine; conditions: excitation 360 nm, fluorescence 430 nm
Method: AGEs were formed from proteins, BSA, using carbonyl compounds (3,4-DGE, MGO, GO, 3-DG, and Glu). First, BSA (manufactured by SIGMA; Trade Name: A-0281) was dissolved in PBS (pH 7.4) so as to have a concentration of 5 mg/ml (6.2 mM of basic amino acid residues). Thus a BSA solution was prepared. Then each carbonyl compound was added to the BSA solution so as to have a concentration of 25 mM (4-equivalent relative to the basic amino acid residues in the BSA). This was incubated at 37° C. for predetermined times (2, 4, 8, 24, 72, and 168 hours). […]
The reaction solutions incubated as described above were sampled and these reaction solutions thus sampled were applied to desalting columns (Trade Name: PD-10, manufactured by Amersham Pharmacia Biotech) to be desalted. With respect to the reaction solutions thus desalted, the BSA concentration was measured using BCA protein assay kit (manufactured by Pierce). […] Then the fluorescence intensity was measured at an excitation wavelength of 360 nm and a fluorescence wavelength of 430 nm (measuring apparatus: Trade Name SPECTRAFLUOR PLUS, manufactured by TECAN). […]

BSA [5] = molecular target: T1, BSA; test: amino acid analysis of Arg and Lys residues in reaction product; design: species or system bovine; conditions: residual ratio vs untreated native BSA
Method: The aforementioned sample solutions were freeze-dried and then were acid-hydrolyzed in 6N hydrochloric acid (120° C., 24 hours). According to a conventionally known method, these were derivatized with dansyl chloride and were isolated with HPLC. Then the amounts of arginine (Arg) and lysine (Lys) residues in the samples were determined (n=3). FIG. 11(A) is a graph showing the residual ratios of the Arg residues, while FIG. 11(B) is a graph showing the residual ratios of the Lys residues. The residual ratio indicates a percentage that is obtained with the amount of residues in untreated native BSA being taken as 100%.

BSA [6] = molecular target: T1, BSA; test: isoelectric focusing of reaction product; design: species or system bovine; conditions: reaction product with BSA
Method: A pI marker was electrophoresed beforehand and then a calibration curve between pI and mobility was created. Then the aforementioned sample solutions also were electrophoresed. With a region stained deepest in each sample being taken as the center of the band, the isoelectric point was calculated using the calibration curve.

BSA [7] = molecular target: T1, BSA; test: SDS-PAGE of reaction product; design: species or system bovine; conditions: samples of 2 to 168 hours reaction
Method: The samples obtained using 3,4-DGE and MGO each were subjected to SDS-PAGE. The results are shown in the electrophoretograms in FIG. 13. […] The lanes show the results with respect to the molecular-weight marker, native BSA, and samples (2, 4, 8, 24, 72, and 168 hours) sequentially from the left.

BSA [8] = molecular target: T1, BSA; test: reactivity with protein by fluorescence intensity (Reference Example 2); design: species or system bovine; conditions: 30 mmol/L carbonyl compound, BSA 10 mg/ml, 37° C., 24 hours
Method: BSA was dissolved in PBS (pH 7.4) so as to be 10 mg/ml. Various carbonyl compounds each were added thereto in such a manner as to have a concentration of 30 mmol/L. Then they were allowed to react at 37° C. for 24 hours. After the reaction, denaturation (AGE formation) of the BSA was evaluated according to the fluorescence intensity (at an excitation wavelength of 360 nm and a fluorescence wavelength of 430 nm) of the reaction solutions.

T1 sequence (P02769 25-607): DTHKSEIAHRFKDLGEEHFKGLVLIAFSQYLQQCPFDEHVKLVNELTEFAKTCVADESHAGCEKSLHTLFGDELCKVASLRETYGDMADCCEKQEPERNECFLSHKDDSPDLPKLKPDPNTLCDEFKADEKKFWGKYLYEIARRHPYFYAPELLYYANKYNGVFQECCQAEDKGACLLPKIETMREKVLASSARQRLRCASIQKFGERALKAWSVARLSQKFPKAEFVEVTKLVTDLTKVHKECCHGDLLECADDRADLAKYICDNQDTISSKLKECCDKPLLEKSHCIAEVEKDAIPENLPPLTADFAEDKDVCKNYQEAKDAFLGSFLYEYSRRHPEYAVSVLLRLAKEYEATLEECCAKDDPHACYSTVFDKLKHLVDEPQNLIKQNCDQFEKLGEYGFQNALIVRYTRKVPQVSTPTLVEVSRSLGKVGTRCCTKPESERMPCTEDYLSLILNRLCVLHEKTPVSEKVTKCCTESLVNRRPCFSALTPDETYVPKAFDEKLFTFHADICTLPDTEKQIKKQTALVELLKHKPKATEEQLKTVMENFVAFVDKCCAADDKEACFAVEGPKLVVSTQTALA

Compound: 3,4-DGE-BSA: AGE-protein formed from bovine serum albumin with 3,4-DGE
activity of the cells (viable cell count) [1]: approximately 25%

browning of reaction solution (BSA [2]): observed
Compound: O=CC(=O)C[C@H](O)[C@H](O)CO [Example 3-DG, 3-deoxyglucosone]

Compound: CC(=O)C=O [MGO, methylglyoxal]
browning of reaction solution (BSA [2]): observed | pentosidine (BSA [3]; after 168 hours incubation): 0.0028 molecule per BSA molecule

time until reaction solution was colored (BSA [2]): approximately two | browning of reaction solution (BSA [2]): deep brown | reaction time at which fluorescence nearly achieved equilibrium (BSA [4]): ~24 h | fluorescence intensity (BSA [4]; compared to other carbonyl compounds): very high fluorescence intensity | free Arg and Lys residues in reaction product (BSA [5]): reduced | fluorescence of BSA solution (AGE formation) (BSA [8]): very strong fluorescence
Compound: O=CC(=O)C=CC(O)CO (stereo not shown) [3,4-DGE, 3,4-dideoxyglucosone-3-ene]
production of CML, pentosidine, MRX (BSA [3]; ELISA of reaction solution): production of neither CML, pentosidine, or MRX was found | change in isoelectric point (BSA [6]): shift toward the acidic side after 24 hours reaction | change in SDS-PAGE band (BSA [7]): disturbance in the band is observed after 2 to 4 hours reaction

Compound: O=CC=O [GO, glyoxal]
browning of reaction solution (BSA [2]): observed | production of CML (BSA [3]; after 24 hours incubation): 3.025 molecules per BSA molecule | production of CML (BSA [3]; after 168 hours incubation): 3.7 molecules per BSA molecule
